Among the data in PubChem BioAssay (NCI) are GI50 and TGI values, retold here.

Some test systems named below: UACC-62 melanoma; 786-0 renal; MDA-MB-435; IGROV1 ovarian; NCI-H460 lung; DU-145 prostate; SN12C renal; SF-268 CNS; COLO 205 colon.
Common to all, as to test: NCI-60 cell line screen, 48 h

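48-hour exposure; five concentrations; linearly interpolated endpoints. GI50: concentration for 50% inhibition of growth. Definition used: TGI = concentration required for complete inhibition of growth.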

Take `CCC1=C[C@H]2CN(CCc3c([nH]c4ccccc34)[C@@](C(=O)OC)(c3cc4c(cc3OC)N(C)[C@H]3[C@@](O)(C(=O)OC)[C@H](OC(C)=O)[C@]5(CC)[C@@H]6C[C@@H]6CN6CC[C@]43[C@@H]65)C2)C1`: the GI50 in the assay on UACC-62 melanoma is 0.0211 µM; in the assay with 786-0 renal, 0.0315 µM; in the assay on MDA-MB-435, 0.00603 µM; with IGROV1 ovarian, 0.144 µM; with NCI-H460 lung, 0.0383 µM; in the assay with DU-145 prostate, 0.0239 µM. The GI50 was 0.0932 µM in the assay on SN12C renal and 0.124 µM in the assay with SF-268 CNS. Also, the TGI in the assay on UACC-62 melanoma was found to be 5.12 µM; with 786-0 renal, 3.07 µM; in the assay on MDA-MB-435, 0.0211 µM; in the assay on IGROV1 ovarian it was 6.77 µM; with NCI-H460 lung, 2.65 µM; in the assay on DU-145 prostate it was 3.15 µM. The TGI in the assay on SN12C renal is 4.99 µM; in the assay on SF-268 CNS it was 4.04 µM.
`O=c1[nH]c(C2CCCCC2)nc2cc(Cl)ccc12`: the TGI with UACC-62 melanoma, in the assay with 786-0 renal, in the assay with IGROV1 ovarian, with SN12C renal, in the assay with COLO 205 colon and with SF-268 CNS was more than 100 µM in each case.
Consider `Cc1ccccc1C(C#N)/C(=N/NC(=O)C(=O)NN)C(=O)Nc1cccc(C(F)(F)F)c1` (configuration not stated), for which the TGI with UACC-62 melanoma, with 786-0 renal, in the assay with IGROV1 ovarian, in the assay with NCI-H460 lung, in the assay on SN12C renal and in the assay with COLO 205 colon was more than 100 µM throughout. The molecule also returned a TGI in the assay on SF-268 CNS of more than 100 µM.
`CC(C)(C)C1CCN(C(=O)c2ccccc2)CC1`: the TGI in the assay on UACC-62 melanoma, with 786-0 renal, in the assay with IGROV1 ovarian, with NCI-H460 lung, in the assay on SN12C renal and in the assay with COLO 205 colon was more than 100 µM each time.
On to `O=c1nc2[nH]nc(-c3ccccc3)c2n[nH]1`, for which the TGI was more than 100 µM with UACC-62 melanoma; 52 µM with 786-0 renal; more than 100 µM with IGROV1 ovarian; more than 100 µM in the assay with NCI-H460 lung; more than 100 µM with SN12C renal; more than 100 µM in the assay on COLO 205 colon. The same molecule returned a TGI in the assay with SF-268 CNS of more than 100 µM.
In the case of `C#CCOc1c(OC)cc(C(=O)/C(C)=C/c2cccc(N=[N+]=[N-])c2)cc1OC`, the GI50 with UACC-62 melanoma is 0.253 µM; in the assay on 786-0 renal, 0.18 µM; with IGROV1 ovarian, 0.766 µM; in the assay with NCI-H460 lung it was 0.329 µM; with DU-145 prostate, 0.296 µM; in the assay with SN12C renal, 0.677 µM. In addition, the figures for the GI50 in the assay on COLO 205 colon and in the assay with SF-268 CNS were 0.3 µM and 0.637 µM, respectively. Further, the TGI is more than 100 µM in the assay with UACC-62 melanoma; more than 100 µM in the assay on 786-0 renal; more than 100 µM in the assay on IGROV1 ovarian; 20.2 µM with NCI-H460 lung; more than 100 µM in the assay with DU-145 prostate; more than 100 µM in the assay on SN12C renal. The TGI in the assay on COLO 205 colon was 2.98 µM; in the assay on SF-268 CNS, more than 100 µM.
Turning to `O=CN/C=C/c1ccccc1O`, the TGI in the assay on UACC-62 melanoma, in the assay with 786-0 renal, with IGROV1 ovarian, in the assay with NCI-H460 lung, in the assay with DU-145 prostate and in the assay with SN12C renal was more than 100 µM throughout. Further, the TGI in the assay on COLO 205 colon and in the assay on SF-268 CNS was more than 100 µM throughout.
On to `COC(=O)c1cc(O)ccc1NC(=O)c1ccc(O)cc1`, for which the TGI with UACC-62 melanoma, in the assay on 786-0 renal, in the assay on IGROV1 ovarian, in the assay with NCI-H460 lung, in the assay with COLO 205 colon and in the assay with SF-268 CNS was more than 100 µM in each case.
In the case of `COc1cc([C@@H]2c3cc4c(cc3[C@@H](NC(=O)c3ccc([N+](=O)[O-])cc3)C3COC(=O)[C@@H]32)OCO4)cc(OC)c1O` (some centres not stated), the TGI was found to be 2.04 µM in the assay on UACC-62 melanoma; 1.4 µM in the assay with 786-0 renal; 3.44 µM with IGROV1 ovarian; 2.38 µM in the assay on NCI-H460 lung; 1.37 µM in the assay with SN12C renal; 10.4 µM in the assay on COLO 205 colon. The molecule further displayed a TGI in the assay with SF-268 CNS of 5.77 µM.
On to `[O-][N+]1=C(c2ccccc2)COc2ccccc21`, for which the TGI with UACC-62 melanoma, with 786-0 renal, in the assay on IGROV1 ovarian, in the assay on NCI-H460 lung, in the assay on SN12C renal and in the assay with COLO 205 colon was more than 100 µM each time. This molecule yielded a TGI with SF-268 CNS of more than 100 µM.
On to `C/C(CC(=O)Nc1ccc([N+](=O)[O-])cc1)=N/N=C(N)N`, for which the TGI with UACC-62 melanoma, with 786-0 renal, in the assay on IGROV1 ovarian, in the assay with NCI-H460 lung, in the assay on COLO 205 colon and in the assay on SF-268 CNS was more than 100 µM each time.
Turning to `Cc1cc2c(=O)cc(-c3ccc(C(=O)O)cc3)oc2c(C(=O)O)c1C`, the TGI with UACC-62 melanoma, with 786-0 renal, in the assay on IGROV1 ovarian, with NCI-H460 lung, with SN12C renal and with COLO 205 colon was more than 100 µM each time.
Consider `Clc1ccc(CCn2cncn2)c(Cl)c1`, for which the TGI with UACC-62 melanoma, in the assay on 786-0 renal, in the assay on IGROV1 ovarian, in the assay with NCI-H460 lung, in the assay with SN12C renal and in the assay on COLO 205 colon was more than 100 µM in each case. In the assay with SF-268 CNS, this molecule came in with a TGI of more than 100 µM.
Consider `Cn1c(-c2ccccc2)c/c(=N\NS(C)(=O)=O)c2cc(S(=O)(=O)O)ccc21`, for which the TGI with UACC-62 melanoma, in the assay with 786-0 renal, in the assay on IGROV1 ovarian, in the assay on NCI-H460 lung, in the assay with SN12C renal and with COLO 205 colon was more than 100 µM in each case. The TGI in the assay with SF-268 CNS is more than 100 µM.
As to `C=C1CCC2C(C)(CO)C(O)CCC2(C)C1CC(O)C1=CCOC1=O` (configuration not stated), the TGI is more than 100 µM in the assay on UACC-62 melanoma; 71.6 µM with 786-0 renal; more than 100 µM in the assay with IGROV1 ovarian; more than 100 µM with NCI-H460 lung; more than 100 µM in the assay with SN12C renal; more than 100 µM in the assay on COLO 205 colon. The molecule further displayed a TGI in the assay with SF-268 CNS of more than 100 µM.
Regarding `O=[N+]([O-])c1ccc(C2N3CCCCC3[C@@H]3c4[nH]c5ccccc5c4CCN23)cc1` (some centres not stated), the TGI was 18.6 µM with UACC-62 melanoma; more than 100 µM with 786-0 renal; more than 100 µM with IGROV1 ovarian; 40.9 µM in the assay on NCI-H460 lung; 32.3 µM in the assay on SN12C renal; 38 µM in the assay with COLO 205 colon. In addition, the TGI with SF-268 CNS stood at 43 µM.
Turning to `O=C(CCc1cc(-c2ccco2)n(-c2ccc([N+](=O)[O-])cc2[N+](=O)[O-])n1)Nc1ccccc1`, the TGI in the assay with UACC-62 melanoma, with 786-0 renal, with IGROV1 ovarian, in the assay on NCI-H460 lung, in the assay on SN12C renal and in the assay with COLO 205 colon was more than 100 µM throughout. The TGI with SF-268 CNS was more than 100 µM.
`COC(=O)/C(Cl)=C1/CC1COCc1ccccc1` (configuration not stated): the TGI with UACC-62 melanoma was 66.8 µM; in the assay with 786-0 renal it was 42.2 µM; with IGROV1 ovarian, more than 100 µM; in the assay on NCI-H460 lung, more than 100 µM; with SN12C renal, more than 100 µM; with COLO 205 colon it was 44.4 µM. In addition, in the assay with SF-268 CNS, the TGI is more than 100 µM.
For the molecule `Cc1ccc(S(=O)(=O)NC(=O)Nc2nc(Cl)cc(Cl)n2)cc1`, the TGI in the assay with UACC-62 melanoma, in the assay with 786-0 renal, in the assay on IGROV1 ovarian, in the assay on NCI-H460 lung, with SN12C renal and with COLO 205 colon was more than 100 µM throughout. The same molecule came in with a TGI in the assay on SF-268 CNS of more than 100 µM.
As to `O=C(Cc1nc2ccccc2s1)NC12CC3CC(CC(C3)C1)C2`, the TGI in the assay on UACC-62 melanoma, in the assay on 786-0 renal, in the assay with NCI-H460 lung, with SN12C renal and in the assay on SF-268 CNS was more than 100 µM throughout.
For the molecule `COC(=O)CCC(=O)C(C#N)c1ccc(Cl)cc1Cl` (configuration not stated), the TGI with UACC-62 melanoma, with 786-0 renal, in the assay with IGROV1 ovarian, in the assay with SN12C renal and in the assay with SF-268 CNS was more than 100 µM throughout.
On to `CC(=O)O[C@@H]1CC(=O)O[C@@H]2C[C@@H](CC/C(Cl)=C/C/C=C\1C)O[C@@H]2CO`, for which the GI50 is more than 25 µM in the assay with UACC-62 melanoma; more than 25 µM with 786-0 renal; more than 25 µM in the assay on IGROV1 ovarian; more than 25 µM with NCI-H460 lung; more than 22.1 µM in the assay with DU-145 prostate; more than 25 µM in the assay on SN12C renal. Besides, the GI50 in the assay with COLO 205 colon and in the assay with SF-268 CNS was more than 25 µM throughout. Moreover, the TGI with UACC-62 melanoma, in the assay on 786-0 renal, with IGROV1 ovarian, in the assay with NCI-H460 lung, in the assay with DU-145 prostate and with SN12C renal was more than 25 µM each time. In addition, the TGI in the assay on COLO 205 colon and with SF-268 CNS was more than 25 µM throughout.
Regarding `C/C(CN1C(=O)c2ccccc2C1=O)=N\NS(C)(=O)=O`, the TGI in the assay on UACC-62 melanoma, with 786-0 renal, in the assay on IGROV1 ovarian, in the assay on NCI-H460 lung, in the assay on SN12C renal and with COLO 205 colon was more than 100 µM each time. This molecule also registered a TGI in the assay with SF-268 CNS of more than 100 µM.
`N#Cc1ccccc1/C=N/O`: the TGI is more than 100 µM with UACC-62 melanoma; more than 100 µM with 786-0 renal; more than 100 µM in the assay on IGROV1 ovarian; more than 100 µM in the assay on NCI-H460 lung; more than 100 µM in the assay on SN12C renal; more than 74.9 µM in the assay with COLO 205 colon. The molecule further registered a TGI in the assay with SF-268 CNS of more than 100 µM.
